Experimental data from PMC3914206.

Columns and labels:
Type in all cases: binding
Parameters in all cases: KINOMEscan: ABL1(F317L)-phosphorylated / KINOMEscan: ABL1(H396P)-nonphosphorylated / KINOMEscan: ABL1(H396P)-phosphorylated / KINOMEscan: ABL1(M351T)-phosphorylated / KINOMEscan: ABL1(T315I)-phosphorylated / KINOMEscan: ABL1-nonphosphorylated / KINOMEscan: ABL1-phosphorylated / KINOMEscan: ACVR2A / KINOMEscan: ACVR2B / KINOMEscan: ADCK3 / KINOMEscan: ADCK4 / KINOMEscan: AKT1 / KINOMEscan: AKT3 / KINOMEscan: ALK / KINOMEscan: ARK5 / KINOMEscan: AURKA / KINOMEscan: AURKC / KINOMEscan: BIKE / KINOMEscan: BMPR1A / KINOMEscan: BMPR1B / KINOMEscan: BMX / KINOMEscan: BRK / KINOMEscan: BRSK1 / KINOMEscan: BRSK2 / KINOMEscan: CAMK1 / KINOMEscan: CAMK1D / KINOMEscan: CAMK1G / KINOMEscan: CAMK2A / KINOMEscan: CAMK2B / KINOMEscan: AAK1 / KINOMEscan: CAMK2D / KINOMEscan: CAMK2G / KINOMEscan: ABL1(F317I)-nonphosphorylated / KINOMEscan: ABL1(F317I)-phosphorylated / KINOMEscan: ABL1(F317L)-nonphosphorylated: unit: % Ctrl
Details in all cases: Compound Concentration 10 µM
panel of 442 kinases [1] = biological target: T1, panel of 442 kinases (Homo sapiens, UniProt Q13233)
T1 construct: purchased KINOMEscan
T1 sequence (Q13233 whole entry): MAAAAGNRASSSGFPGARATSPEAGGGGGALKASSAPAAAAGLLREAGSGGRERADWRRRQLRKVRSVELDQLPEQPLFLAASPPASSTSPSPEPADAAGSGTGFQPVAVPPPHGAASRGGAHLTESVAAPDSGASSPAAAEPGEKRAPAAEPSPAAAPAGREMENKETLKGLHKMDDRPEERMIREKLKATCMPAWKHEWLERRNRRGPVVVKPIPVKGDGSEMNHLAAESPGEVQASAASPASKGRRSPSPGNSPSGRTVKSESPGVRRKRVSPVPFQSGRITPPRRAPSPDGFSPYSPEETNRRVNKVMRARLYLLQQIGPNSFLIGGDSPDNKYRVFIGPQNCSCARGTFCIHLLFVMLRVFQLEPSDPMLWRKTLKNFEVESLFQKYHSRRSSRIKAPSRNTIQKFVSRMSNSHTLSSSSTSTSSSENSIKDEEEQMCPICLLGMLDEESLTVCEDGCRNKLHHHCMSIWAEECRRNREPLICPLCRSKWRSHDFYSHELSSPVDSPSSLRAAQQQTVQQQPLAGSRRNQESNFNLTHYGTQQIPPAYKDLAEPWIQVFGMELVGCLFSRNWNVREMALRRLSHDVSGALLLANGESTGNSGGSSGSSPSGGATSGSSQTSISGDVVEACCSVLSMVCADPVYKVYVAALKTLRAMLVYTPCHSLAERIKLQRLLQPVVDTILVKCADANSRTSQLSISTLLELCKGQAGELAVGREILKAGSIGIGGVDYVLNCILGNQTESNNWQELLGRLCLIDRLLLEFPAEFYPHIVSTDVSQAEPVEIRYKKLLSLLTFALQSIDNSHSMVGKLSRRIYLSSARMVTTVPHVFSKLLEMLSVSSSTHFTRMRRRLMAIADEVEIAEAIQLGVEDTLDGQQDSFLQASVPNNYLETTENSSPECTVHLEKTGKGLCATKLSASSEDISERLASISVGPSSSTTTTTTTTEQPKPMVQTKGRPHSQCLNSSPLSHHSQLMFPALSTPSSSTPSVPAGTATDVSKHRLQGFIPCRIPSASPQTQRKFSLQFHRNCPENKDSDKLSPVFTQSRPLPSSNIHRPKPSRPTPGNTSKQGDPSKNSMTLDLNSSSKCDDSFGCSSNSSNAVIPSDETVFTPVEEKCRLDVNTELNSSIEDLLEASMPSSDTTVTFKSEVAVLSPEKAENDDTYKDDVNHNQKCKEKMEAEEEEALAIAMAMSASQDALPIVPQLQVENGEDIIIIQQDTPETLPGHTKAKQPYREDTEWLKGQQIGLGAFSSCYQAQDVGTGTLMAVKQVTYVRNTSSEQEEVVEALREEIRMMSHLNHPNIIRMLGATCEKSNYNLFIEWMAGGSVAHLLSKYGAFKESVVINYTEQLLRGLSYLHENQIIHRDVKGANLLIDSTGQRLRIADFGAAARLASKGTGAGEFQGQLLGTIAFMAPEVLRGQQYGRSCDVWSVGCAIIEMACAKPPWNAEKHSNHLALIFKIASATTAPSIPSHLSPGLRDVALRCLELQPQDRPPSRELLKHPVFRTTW
From the text: (§1) We assessed the selectivity of members of this scaffold using the KINOMEscan methodology across a near comprehensive panel of 442 kinases [[18,27]].

panel of 442 kinases [2] = biological target: T2, panel of 442 kinases (Homo sapiens, UniProt P00519, F317L)
T2 construct: purchased KINOMEscan
T2 sequence (P00519 whole entry F317L): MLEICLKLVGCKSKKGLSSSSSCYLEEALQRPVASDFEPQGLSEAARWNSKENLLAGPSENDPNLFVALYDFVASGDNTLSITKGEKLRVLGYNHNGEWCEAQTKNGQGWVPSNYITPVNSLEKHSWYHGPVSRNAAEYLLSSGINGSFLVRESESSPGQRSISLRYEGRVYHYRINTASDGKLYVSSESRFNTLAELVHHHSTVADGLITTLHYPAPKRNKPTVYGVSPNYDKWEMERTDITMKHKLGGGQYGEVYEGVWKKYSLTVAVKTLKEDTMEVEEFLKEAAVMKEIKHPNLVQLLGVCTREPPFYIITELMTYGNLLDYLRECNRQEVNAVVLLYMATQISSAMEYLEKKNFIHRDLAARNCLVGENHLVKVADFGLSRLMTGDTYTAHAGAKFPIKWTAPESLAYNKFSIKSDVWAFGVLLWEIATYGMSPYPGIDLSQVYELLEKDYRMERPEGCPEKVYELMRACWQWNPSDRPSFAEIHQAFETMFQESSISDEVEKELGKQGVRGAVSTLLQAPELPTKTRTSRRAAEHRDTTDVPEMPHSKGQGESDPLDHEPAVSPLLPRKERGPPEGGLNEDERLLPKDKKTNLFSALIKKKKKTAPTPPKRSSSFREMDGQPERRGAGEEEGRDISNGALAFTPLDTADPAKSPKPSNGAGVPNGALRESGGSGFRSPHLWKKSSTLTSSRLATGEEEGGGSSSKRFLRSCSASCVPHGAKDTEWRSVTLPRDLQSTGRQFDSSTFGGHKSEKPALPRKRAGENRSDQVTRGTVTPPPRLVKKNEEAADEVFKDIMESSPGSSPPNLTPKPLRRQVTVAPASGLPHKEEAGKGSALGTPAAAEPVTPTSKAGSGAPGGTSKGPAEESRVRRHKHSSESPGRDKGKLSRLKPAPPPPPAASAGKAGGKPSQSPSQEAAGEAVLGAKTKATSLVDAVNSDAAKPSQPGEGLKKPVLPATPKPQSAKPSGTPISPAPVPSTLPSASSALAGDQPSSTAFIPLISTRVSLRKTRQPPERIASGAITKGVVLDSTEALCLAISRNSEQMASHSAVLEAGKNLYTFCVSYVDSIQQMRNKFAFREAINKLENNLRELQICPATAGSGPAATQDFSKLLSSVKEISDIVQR
From the text: as §1

panel of 442 kinases [3] = biological target: T3, panel of 442 kinases (Homo sapiens, UniProt Q15208)
T3 construct: purchased KINOMEscan
T3 sequence (Q15208 whole entry): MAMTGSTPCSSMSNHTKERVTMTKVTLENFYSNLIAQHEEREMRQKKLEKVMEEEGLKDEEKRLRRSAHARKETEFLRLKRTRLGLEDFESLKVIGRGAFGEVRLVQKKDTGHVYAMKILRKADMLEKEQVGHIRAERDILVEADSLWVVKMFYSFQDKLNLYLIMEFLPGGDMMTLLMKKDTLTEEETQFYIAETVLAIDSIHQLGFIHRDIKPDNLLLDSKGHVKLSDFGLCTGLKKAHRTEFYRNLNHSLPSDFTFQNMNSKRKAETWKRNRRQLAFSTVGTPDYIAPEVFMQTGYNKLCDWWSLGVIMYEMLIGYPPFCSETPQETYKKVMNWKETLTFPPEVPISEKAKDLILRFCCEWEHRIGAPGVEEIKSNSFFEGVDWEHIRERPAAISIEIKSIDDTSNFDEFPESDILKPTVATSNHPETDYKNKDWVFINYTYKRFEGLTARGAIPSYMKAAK
From the text: as §1

panel of 442 kinases [4] = biological target: T4, panel of 442 kinases (Homo sapiens, UniProt Q9P289)
T4 construct: purchased KINOMEscan
T4 sequence (Q9P289 whole entry): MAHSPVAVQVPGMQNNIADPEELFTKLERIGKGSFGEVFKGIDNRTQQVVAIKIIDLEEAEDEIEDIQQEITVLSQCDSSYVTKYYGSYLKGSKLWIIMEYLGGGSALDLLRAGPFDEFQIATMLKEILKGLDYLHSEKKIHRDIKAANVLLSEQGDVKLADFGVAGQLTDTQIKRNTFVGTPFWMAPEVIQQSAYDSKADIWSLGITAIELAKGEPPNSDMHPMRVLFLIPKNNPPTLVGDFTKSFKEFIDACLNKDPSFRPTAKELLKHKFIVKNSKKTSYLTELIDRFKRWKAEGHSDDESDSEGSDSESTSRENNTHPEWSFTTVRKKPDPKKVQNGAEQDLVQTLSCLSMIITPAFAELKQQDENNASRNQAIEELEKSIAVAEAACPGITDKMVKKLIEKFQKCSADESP
From the text: as §1

Structure (SMILES): COc1cc(C(=O)N2CCC(N3CCN(C)CC3)CC2)ccc1Nc1ncc2c(n1)N(C)c1ccccc1C(=O)N2C [15 (LRRK2-IN-1)]
- KINOMEscan: MAP3K1 (panel of 442 kinases [1]): 95
- KINOMEscan: ABL1(F317L)-nonphosphorylated (panel of 442 kinases [2]): 14
- KINOMEscan: ABL1(F317L)-phosphorylated (panel of 442 kinases [2]): 0.85
- KINOMEscan: NDR1 (panel of 442 kinases [3]): 96
- KINOMEscan: MST4 (panel of 442 kinases [4]): 95

Structure (SMILES): COc1cc(C(=O)N2CCC(N3CCN(C)CC3)CC2)ccc1Nc1ncc2c(n1)N1CCc3cccc(c31)C(=O)N2C [Compound 24]
- KINOMEscan: ABL1(F317L)-nonphosphorylated (panel of 442 kinases [2]): 23
- KINOMEscan: ABL1(F317L)-phosphorylated (panel of 442 kinases [2]): 7.8

Structure (SMILES): COc1cc(C(=O)N2CCC(N3CCN(C)CC3)CC2)ccc1Nc1ncc2c(n1)N(C1CCCC1)c1ccccc1C(=O)N2C [Compound 25, 11-cyclopentyl-2-((2-methoxy-4-(4-(4-methylpiperazin-1-yl)piperidine-1-carbonyl)phenyl)amino)-5-methyl-5H-benzo[e]pyrimido[5,4-b][1,4]diazepin-6(11H)-one]
- KINOMEscan: MAP3K1 (panel of 442 kinases [1]): 100
- KINOMEscan: ABL1(F317L)-nonphosphorylated (panel of 442 kinases [2]): 15
- KINOMEscan: ABL1(F317L)-phosphorylated (panel of 442 kinases [2]): 9.1
- KINOMEscan: NDR1 (panel of 442 kinases [3]): 100
- KINOMEscan: MST4 (panel of 442 kinases [4]): 100

Structure (SMILES): CCOc1cc(C(=O)N2CCC(N3CCN(C)CC3)CC2)ccc1Nc1ncc2c(n1)N(C1CCCC1)c1ccccc1C(=O)N2C [Compound 26]
- KINOMEscan: MAP3K1 (panel of 442 kinases [1]): 93
- KINOMEscan: ABL1(F317L)-nonphosphorylated (panel of 442 kinases [2]): 71
- KINOMEscan: ABL1(F317L)-phosphorylated (panel of 442 kinases [2]): 34
- KINOMEscan: NDR1 (panel of 442 kinases [3]): 100
- KINOMEscan: MST4 (panel of 442 kinases [4]): 100
